Measurements reported in patent publication EP4725957A1, “GROUP OF CYCLIC ALKALINE LIPOPEPTIDE COMPOUNDS, AND PREPARATION METHOD THEREFOR AND USE THEREOF” (Institute of Medicinal Biotechnology, Chinese Academy of …, priority 2023, dated 2024).
Values after ≈ are worked out from the molar mass of the structure shown. Bridge positions count the residues as written; N and C are the ends. Square brackets hold non-standard residues; d marks the D form. Peptide text beside a SMILES is read from it. * marks the point of attachment. Heptanoyl(6-Me) = CC(C)CCCCC(=O)*; dOrn = NCCC[C@@H](N)C(=O)O; Nonanoyl = CCCCCCCCC(=O)*; X1 = CC[C@H](C)CCCCC(=O)*; Heptanoyl = CCCCCCC(=O)*; Octanoyl = CCCCCCCC(=O)*; Orn = NCCC[C@H](N)C(=O)O; dDap = NC[C@@H](N)C(=O)O; Dab = NCC[C@H](N)C(=O)O; Dap = NC[C@H](N)C(=O)O

Columns and labels:
Assay type in all cases: cell-based
[1] = system: Acinetobacter baumannii ABA19-1; conditions: ABA19-1
Method: (§1) The minimal inhibitory concentration (MIC) was determined by the broth microdilution method according to the recommended procedures of the Clinical and Laboratory Standards Institute (CLSI).
(§2) An appropriate amount of the cyclic lipopeptide compounds prepared in Examples 1-120 and the reference standards were weighed and dissolved in sterile pure water. An appropriate volume of the mother solution was subjected to ten-fold dilution with sterile Mueller-Hinton (MH) broth to a concentration of 0.256 mg/mL. Half of the drug solution was aliquoted into 96-well reagent reservoirs, while the other half was subjected to two-fold serial dilution with sterile MH broth before being transferred into deep-well reagent reservoirs. The above steps were repeated, so that the drug concentrations in the reagent reservoirs were adjusted to 128, 64, 32, 16, 8, 4, 2, 1, 0.5, 0.25, 0.125 and 0.06 mg/L in sequence, and all solutions were prepared and used immediately. Several colonies were picked from agar plates cultured for 18-24 h and directly suspended in sterile normal saline, and the concentration of the bacterial suspension was adjusted to 0.5 McFarland units. The calibrated bacterial suspension was diluted with MH broth to a concentration of (4-8) × 10^5 colony-forming units per milliliter (CFU/mL) and prepared and used immediately. A volume of 100 µL of the aforementioned compounds of the present disclosure (e.g., the compounds prepared in the examples) and reference solutions at different concentrations was separately pipetted into wells 1 to 12 of sterile 96-well polystyrene plates, and an additional 100 µL of the aforementioned inoculum was added to each well. The final concentrations of the samples in the wells were adjusted to 64, 32, 16, 8, 4, 2, 1, 0.5, 0.25, 0.125, 0.06 and 0.03 mg/L, respectively, and the final concentration of the inoculum in each well was (2-4) × 10^5 CFU/mL. Additional growth control wells were set up, each containing 100 µL of the inoculum and 100 µL of sterile MH broth. The test substances and inocula in all wells were mixed thoroughly and then sealed. The inoculated 96-well plates were incubated in an incubator at 35-37°C for 16-20 h.
(§3) The strains used for the antibacterial activity assay were obtained from the American Type Culture Collection (ATCC) and clinical isolates.
(§4) The strains employed for the antibacterial activity assay included Escherichia coli ATCC BAA-2523, ATCC BAA-2340 (KPC), Klebsiella pneumoniae KPN+19-15, ATCC BAA-1705 (KPC), Pseudomonas aeruginosa PAE19-3, ATCC 27853, Acinetobacter baumannii ABA19-1, and NCTC 13304 (OXA-27).

[2] = system: Acinetobacter baumannii NCTC 13304 (OXA-27); conditions: NCTC 13304
Method: as §1, §2, §3, §4

[3] = system: Escherichia coli ATCC BAA-2340 (KPC); conditions: ATCC BAA-2340
Method: as §1, §2, §3, §4

[4] = system: Escherichia coli ATCC BAA-2523; conditions: ATCC BAA-2523
Method: as §1, §2, §3, §4

[5] = system: Klebsiella pneumoniae ATCC BAA-1705 (KPC); conditions: ATCC BAA-1705
Method: as §1, §2, §3, §4

[6] = system: Klebsiella pneumoniae KPN+19-15; conditions: KPN+19-15
Method: as §1, §2, §3, §4

[7] = system: Pseudomonas aeruginosa ATCC 27853; conditions: ATCC 27853
Method: as §1, §2, §3, §4

[8] = system: Pseudomonas aeruginosa PAE19-3; conditions: PAE19-3
Method: as §1, §2, §3, §4

[9] = Nephrotoxicity assay: in vitro cytotoxicity of HK-2 cells by CCK-8 assay; conditions: human, HK-2 cells (human renal), 72 h incubation with drug-containing medium
Method: In vitro cytotoxicity detection of HK-2 cells was performed by the CCK-8 assay.
The culture medium for human renal HK-2 cells was a complete RPMI-1640 medium (Invitrogen) supplemented with 10% fetal bovine serum (FBS, Gibco). The cryopreservation solution was composed of 90% FBS and 10% dimethyl sulfoxide (DMSO), and the cells were preserved long-term in liquid nitrogen. Cells were cultured in a sterile incubator with a humidified atmosphere containing 5% CO2 at 37°C. When the cell density reached 70%-80%, cell digestion and subculture were conducted. The cyclic lipopeptide compounds prepared in Examples 1-120 were weighed and dissolved in sterile water to prepare a mother solution with a concentration of 1 mg/mL. Drug-containing culture media were then formulated, with the final concentrations set as 500, 250, 200, 100, 50, 25, and 12.5 µg/mL, respectively. Cells were adjusted to a density of 5 × 10^4 cells/mL and seeded into 96-well plates, with 100 µL of cell suspension added to each well. After stable incubation for 24 h, the original medium was replaced with the prepared drug-containing medium, and the plates were incubated in the incubator for an additional 72 h. The medium was gently aspirated, and 100 µL of blank medium containing 10% CCK-8 was added to each well. After incubation in the incubator for 3 h, the optical density (OD) values at 450 nm were measured using a BIOTEK microplate reader. The experiment was repeated three times. For each replicate, polymyxin B was set as the positive drug, and a drug-free blank group was established as the control. The cell viability (%) was calculated by the formula: Cell viability (%) = [(OD of drug-treated group - OD of zero-setting) / (OD of drug-free group - OD of zero-setting)] × 100%. The half-maximal inhibitory concentration (IC50) values were calculated through logarithmic regression analysis.
The cells used for the nephrotoxicity assay were obtained from the ATCC ( American Type Culture Collection). The Cell Counting Kit-8 (CCK-8) used in the assay was supplied by Beyotime Biotechnology Co., Ltd.

Compound	MIC [1]	MIC [2]	MIC [3]	MIC [4]	MIC [5]	MIC [6]	MIC [7]	MIC [8]	IC50 at 72 h [9]
CCCCCCCCC(=O)N[C@@H](CCN)C(=O)N[C@H](C(=O)N[C@@H](CN)C(=O)N[C@H]1CCNC(=O)[C@H]([C@@H](C)O)NC(=O)[C@H](CCN)NC(=O)[C@H](CCN)NC(=O)[C@H](CC(C)C)NC(=O)[C@@H](Cc2ccccc2)NC(=O)[C@H](CCN)NC1=O)[C@@H](C)O [Compound 40, Nonanoyl-Dab-Thr-Dap-ring(4-10)[Dab-Dab-D-Phe-Leu-Dab-Dab-Thr]] (Nonanoyl-[Dab]T[Dap][Dab][Dab][dF]L[Dab][Dab]T; lactam 4-C)	0.06 µg/mL (≈ 0.0504 µM)	0.06 µg/mL (≈ 0.0504 µM)	0.06 µg/mL (≈ 0.0504 µM)	0.06 µg/mL (≈ 0.0504 µM)	0.06 µg/mL (≈ 0.0504 µM)	0.06 µg/mL (≈ 0.0504 µM)	0.06 µg/mL (≈ 0.0504 µM)	0.5 µg/mL (≈ 0.42 µM)	158 ± 6.4 µg/mL (≈ 133 µM)
CC(C)CCCCC(=O)N[C@@H](CCN)C(=O)N[C@H](C(=O)N[C@@H](CCCN)C(=O)N[C@H]1CCNC(=O)[C@H]([C@@H](C)O)NC(=O)[C@H](CCN)NC(=O)[C@H](CCN)NC(=O)[C@H](CC(C)C)NC(=O)[C@@H](Cc2ccccc2)NC(=O)[C@H](CCN)NC1=O)[C@@H](C)O [Compound 47, 6-methylheptanoyl-Dab-Thr-Orn-ring(4-10)[Dab-Dab-D-Phe-Leu-Dab-Dab-Thr]] ({Heptanoyl(6-Me)}-[Dab]T[Orn][Dab][Dab][dF]L[Dab][Dab]T; lactam 4-C)	0.125 µg/mL (≈ 0.104 µM)	0.06 µg/mL (≈ 0.0499 µM)	0.03 µg/mL (≈ 0.0249 µM)	0.03 µg/mL (≈ 0.0249 µM)	≤0.03 µg/mL	≤0.03 µg/mL	≤0.03 µg/mL	0.25 µg/mL (≈ 0.208 µM)	358 ± 11.2 µg/mL (≈ 297 µM)
CCCCCCCC(=O)N[C@@H](CCN)C(=O)N[C@H](C(=O)N[C@H](CO)C(=O)N[C@H]1CCNC(=O)[C@H]([C@@H](C)O)NC(=O)[C@H](CCN)NC(=O)[C@H](CCN)NC(=O)[C@H]([C@@H](C)O)NC(=O)[C@@H](Cc2ccccc2)NC(=O)[C@H](CN)NC1=O)[C@@H](C)O [Compound 63, Octanoyl-Dab-Thr-D-Ser-ring(4-10)[Dab-Dap-D-Phe-Thr-Dab-Dab-Thr]] (Octanoyl-[Dab]T[dS][Dab][Dap][dF]T[Dab][Dab]T; lactam 4-C)	0.25 µg/mL (≈ 0.217 µM)	0.25 µg/mL (≈ 0.217 µM)	0.125 µg/mL (≈ 0.109 µM)	0.125 µg/mL (≈ 0.109 µM)	0.25 µg/mL (≈ 0.217 µM)	0.5 µg/mL (≈ 0.435 µM)	64 µg/mL (≈ 55.6 µM)	4 µg/mL (≈ 3.48 µM)	> 500 µg/mL
CCCCCCC(=O)N[C@@H](CCN)C(=O)N[C@H](C(=O)N[C@H](CO)C(=O)N[C@H]1CCNC(=O)[C@H]([C@@H](C)O)NC(=O)[C@H](CCN)NC(=O)[C@H](CCN)NC(=O)[C@H]([C@@H](C)O)NC(=O)[C@@H](Cc2ccccc2)NC(=O)[C@H](CCCN)NC1=O)[C@@H](C)O [Compound 69, Heptanoyl-Dab-Thr-D-Ser-ring(4-10)[Dab-Orn-D-Phe-Thr-Dab-Dab-Thr]] (Heptanoyl-[Dab]T[dS][Dab][Orn][dF]T[Dab][Dab]T; lactam 4-C)	0.25 µg/mL (≈ 0.215 µM)	0.25 µg/mL (≈ 0.215 µM)	0.5 µg/mL (≈ 0.429 µM)	0.5 µg/mL (≈ 0.429 µM)	0.25 µg/mL (≈ 0.215 µM)	0.5 µg/mL (≈ 0.429 µM)	64 µg/mL (≈ 55 µM)	8 µg/mL (≈ 6.87 µM)	> 500 µg/mL
CCCCCCC(=O)N[C@@H](CCN)C(=O)N[C@H](C(=O)N[C@H](CCCN)C(=O)N[C@H]1CCNC(=O)[C@H]([C@@H](C)O)NC(=O)[C@H](CCN)NC(=O)[C@H](CCN)NC(=O)[C@H](CC(C)C)NC(=O)[C@@H](Cc2ccccc2)NC(=O)[C@H](CCN)NC1=O)[C@@H](C)O [Compound 44, Heptanoyl-Dab-Thr-D-Orn-ring(4-10)[Dab-Dab-D-Phe-Leu-Dab-Dab-Thr]] (Heptanoyl-[Dab]T[dOrn][Dab][Dab][dF]L[Dab][Dab]T; lactam 4-C)	0.125 µg/mL (≈ 0.105 µM)	0.06 µg/mL (≈ 0.0504 µM)	0.06 µg/mL (≈ 0.0504 µM)	0.06 µg/mL (≈ 0.0504 µM)	0.06 µg/mL (≈ 0.0504 µM)	0.125 µg/mL (≈ 0.105 µM)	0.5 µg/mL (≈ 0.42 µM)	2 µg/mL (≈ 1.68 µM)	308 ± 9.7 µg/mL (≈ 259 µM)
CCCCCCCC(=O)N[C@@H](CCN)C(=O)N[C@H](C(=O)N[C@@H](CCCN)C(=O)N[C@H]1CCNC(=O)[C@H]([C@@H](C)O)NC(=O)[C@H](CCN)NC(=O)[C@H](CCN)NC(=O)[C@H]([C@@H](C)O)NC(=O)[C@@H](Cc2ccccc2)NC(=O)[C@H](CCN)NC1=O)[C@@H](C)O [Compound 28, Octanoyl-Dab-Thr-Orn-ring(4-10)[Dab-Dab-D-Phe-Thr-Dab-Dab-Thr]] (Octanoyl-[Dab]T[Orn][Dab][Dab][dF]T[Dab][Dab]T; lactam 4-C)	0.125 µg/mL (≈ 0.105 µM)	0.06 µg/mL (≈ 0.0504 µM)	≤0.03 µg/mL	≤0.03 µg/mL	≤0.03 µg/mL	≤0.03 µg/mL	≤0.03 µg/mL	0.25 µg/mL (≈ 0.21 µM)	> 500 µg/mL
CC[C@H](C)CCCCC(=O)N[C@@H](CCN)C(=O)N[C@H](C(=O)N[C@H](CN)C(=O)N[C@H]1CCNC(=O)[C@H]([C@@H](C)O)NC(=O)[C@H](CCN)NC(=O)[C@H](CCN)NC(=O)[C@H](CC(C)C)NC(=O)[C@@H](Cc2ccccc2)NC(=O)[C@H](CCN)NC1=O)[C@@H](C)O [Compound 31, (S)-6-methyloctanoyl-Dab-Thr-D-Dap-ring(4-10)[Dab-Dab-D-Phe-Leu-Dab-Dab-Thr]] (X1-[Dab]T[dDap][Dab][Dab][dF]L[Dab][Dab]T; lactam 4-C)	0.03 µg/mL (≈ 0.0252 µM)	0.03 µg/mL (≈ 0.0252 µM)	0.03 µg/mL (≈ 0.0252 µM)	0.03 µg/mL (≈ 0.0252 µM)	0.03 µg/mL (≈ 0.0252 µM)	0.03 µg/mL (≈ 0.0252 µM)	0.03 µg/mL (≈ 0.0252 µM)	0.25 µg/mL (≈ 0.21 µM)	222 ± 10.2 µg/mL (≈ 186 µM)
